In PubChem BioAssay (NCI):
“And” between values parts separate entries of the source, which are not always exact repeats. Identical values can stand only once.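 Values below derive from 48-hour exposures of cells grown in 96-well plates, with endpoints linearly interpolated between the two concentrations bracketing the appropriate inhibition level. GI50 = concentration required for 50% inhibition of growth. TGI: concentration producing complete growth inhibition.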

Legend:
Assay in all cases: NCI-60 cell line screen, 48 h
HT29 colon = system: HT29 colon
KM12 colon = system: KM12 colon
SR leukemia = system: SR leukemia
SNB-75 CNS = system: SNB-75 CNS
SK-OV-3 ovarian = system: SK-OV-3 ovarian
EKVX NSCLC = system: EKVX NSCLC
A549 NSCLC = system: A549 NSCLC
HCT-15 colon = system: HCT-15 colon
HOP-62 NSCLC = system: HOP-62 NSCLC
BT-549 breast = system: BT-549 breast

Structure (SMILES)	GI50 (HT29 colon) [µM]	TGI (HT29 colon)	GI50 (KM12 colon) [µM]	TGI (KM12 colon)	GI50 (SR leukemia) [nM]	TGI (SR leukemia)	GI50 (SNB-75 CNS) [µM]	TGI (SNB-75 CNS) [µM]	GI50 (SK-OV-3 ovarian) [µM]	TGI (SK-OV-3 ovarian) [µM]	GI50 (EKVX NSCLC) [µM]	TGI (EKVX NSCLC) [µM]	GI50 (A549 NSCLC) [µM]	TGI (A549 NSCLC) [µM]	GI50 (HCT-15 colon) [µM]	TGI (HCT-15 colon)	GI50 (HOP-62 NSCLC) [µM]	TGI (HOP-62 NSCLC)	TGI (BT-549 breast) [µM]	GI50 (BT-549 breast) [µM]
CC(=O)[CH-]C(C)=O.[CH2-]C.[CH2-]C.[Tl+3]	> 100	> 100 µM	> 100	> 100 µM	> 100000	> 100 µM	> 100	> 100	> 100	> 100	> 100	> 100	> 100	> 100	> 100	> 100 µM	> 100	> 100 µM	–	–
CC(=O)OC1COC(n2c(=S)n(-c3ccccc3)c(=O)c3cc(Br)ccc32)C(OC(C)=O)C1OC(C)=O (stereo not drawn)	–	> 100 µM	–	> 100 µM	–	–	–	30.6	–	> 100	–	> 100	–	> 100	–	> 100 µM	–	47.5 µM	–	–
COC1OC(C)C(OCc2ccccc2)C(OS(=O)(=O)c2ccc(C)cc2)C1OS(=O)(=O)c1ccc(C)cc1 (stereo not drawn)	–	> 100 µM	–	> 100 µM	–	> 100 µM	–	> 100	–	> 100	–	> 100	–	> 100	–	> 100 µM	–	> 100 µM	–	–
C#CCC(N)(CO)C(=O)O (stereo not drawn)	–	> 100 µM	–	> 100 µM	–	> 100 µM	–	> 100	–	> 100	–	> 100	–	> 100	–	> 100 µM	–	> 100 µM	–	–
CC(=O)[O-].CC(=O)[O-].CC(=O)[O-].CC(=O)[O-].[Mo+2].[Mo+2]	> 100	> 100 µM	> 100	> 100 µM	–	–	63.5	> 100	> 100	> 100	> 100	> 100	> 100	> 100	> 100	> 100 µM	> 100	> 100 µM	–	–
CC1=C(C(=O)Nc2ccccc2C)C(/C=C/c2ccccc2)C(C(=O)Nc2ccccc2C)=C(C)N1	–	> 100 µM	–	> 100 µM	–	–	–	> 100	–	> 100	–	> 100	–	> 100	–	> 100 µM	–	> 100 µM	–	–
OC(c1ccc(Br)cc1)(c1cccs1)C1CC1 (stereo not drawn)	–	68 µM	–	35.3 µM	–	–	–	66.2	–	> 100	–	> 100	–	> 100	–	65.7 µM	–	47.2 µM	58.2	–
CNC(SC)=C1C(=O)OC(C)(C)OC1=O	–	> 100 µM	–	> 100 µM	–	> 100 µM	–	> 100	–	> 100	–	> 100	–	> 100	–	40.9 µM	–	> 100 µM	–	–
COc1cc2cnc3c4ccccc4ccc3c2cc1OC	–	> 100 µM	–	> 100 µM	–	–	–	> 100	–	> 100	–	> 100	–	> 100	–	–	–	> 100 µM	–	–
CCCCCCCCCCCCCC(=O)OCC1OC(=O)CC1O (stereo not drawn)	–	> 100 µM	–	> 100 µM	–	–	–	> 100	–	> 100	–	> 100	–	> 100	–	74.5 µM	–	> 100 µM	–	–
CSc1c(C)c(C)nn1-c1ccccc1	–	> 100 µM	–	> 100 µM	–	–	–	> 100	–	> 100	–	> 100	–	> 100	–	> 100 µM	–	–	–	–
COc1ccc(Nc2nc3ccccc3nc2-c2cccs2)cc1	–	–	–	> 100 µM	–	> 100 µM	–	82.2	–	> 100	–	> 100	–	> 100	–	> 100 µM	–	> 100 µM	–	–
CCOC(=O)C(=O)Nc1ccccc1C(F)(F)F	–	> 100 µM	–	> 100 µM	–	> 100 µM	–	> 100	–	> 100	–	> 100	–	> 100	–	> 100 µM	–	> 100 µM	–	–
C[C@H]1[C@H](C)CC[C@]2(C(=O)NCCNCCN)CC[C@]3(C)C(=CC[C@@H]4[C@@]5(C)CCC(=O)C(C)(C)[C@@H]5CC[C@]43C)[C@H]12	–	–	1.85	3.42 µM	–	–	–	–	6.91	33.2	1.58	3.02	–	–	1.73	3.29 µM	–	–	24.1	6.45
O=C1C=C(O)c2[nH]c(=O)ccc2C1=O	–	> 100 µM	–	–	–	> 100 µM	–	> 100	–	> 100	–	> 100	–	> 100	–	> 100 µM	–	> 100 µM	–	–
Cc1ccc(S(=O)(=O)N/N=C(\c2nc3ccc([N+](=O)[O-])cc3[nH]c2=O)C(O)c2ccccc2Cl)cc1 (stereo not drawn)	–	> 100 µM	–	> 100 µM	–	> 100 µM	–	> 100	–	> 100	–	> 100	–	> 100	–	> 100 µM	–	> 100 µM	–	–
Cc1cc(N(CCC#N)CCC#N)ccc1/C=C1N=C(/C=C/c2ccccc2)OC(=O)N\1	–	> 100 µM	–	> 100 µM	–	–	–	> 100	–	> 100	–	> 100	–	> 100	–	> 100 µM	–	> 100 µM	–	–
C[n+]1c2ccccc2cc2c(CNC(CCCN=C(N)N)C(=O)O)cccc21 (stereo not drawn)	0.339	1.14 µM and 5.85 µM	–	1.72 µM and 1.57 µM	220	0.468 µM and 0.582 µM	1.82	10.8	6.15	17.9	2.68	10.2	4.11	14.6	0.551	1.44 µM and 2.52 µM	9.22	6.88 µM and 22 µM	–	–
Cn1cc(-c2csc(-c3cn(C)c4ccccc34)n2)c2cnccc21	1.98	3.71 µM	1	2.48 µM	–	–	4.08	16.9	2.52	6.33	1.56	3.39	2.38	5.01	1.51	3.2 µM	1.67	3.85 µM	3.09	1.68
NC(N)=NS(=O)(=O)c1ccc(NC(=O)c2cccc3c(Nc4ccc(S(N)(=O)=O)cc4)c4ccccc4nc23)cc1	–	> 100 µM	–	> 100 µM	–	–	–	> 100	–	> 100	–	> 100	–	> 100	–	> 100 µM	–	> 100 µM	–	–
O=c1c(Cl)c(Cl)cnn1CCc1ccncc1	–	31.6 µM	–	28.1 µM	–	57.2 µM	–	33.2	–	–	–	36.2	–	> 100	–	31.3 µM	–	33.9 µM	–	–

Structure (SMILES)	GI50 (HT29 colon) [µM]	TGI (HT29 colon)	GI50 (KM12 colon) [µM]	TGI (KM12 colon)	GI50 (SR leukemia) [nM]	TGI (SR leukemia)	GI50 (SNB-75 CNS) [µM]	TGI (SNB-75 CNS) [µM]	GI50 (SK-OV-3 ovarian) [µM]	TGI (SK-OV-3 ovarian) [µM]	GI50 (EKVX NSCLC) [µM]	TGI (EKVX NSCLC) [µM]	GI50 (A549 NSCLC) [µM]	TGI (A549 NSCLC) [µM]	GI50 (HCT-15 colon) [µM]	TGI (HCT-15 colon)	GI50 (HOP-62 NSCLC) [µM]	TGI (HOP-62 NSCLC)	TGI (BT-549 breast) [µM]	GI50 (BT-549 breast) [µM]
O=C(O)CCC(NC(=S)S)C(=O)O.[Na+].[Zn+2] (stereo not drawn)	> 50	> 50 µM	> 50	> 50 µM	–	–	> 50	> 50	> 50	> 50	–	–	> 50	> 50	> 50	> 50 µM	> 50	> 50 µM	> 50	> 50
CC1(Cc2ccccc2)NC(=S)NC1=O (stereo not drawn)	–	> 100 µM	–	> 100 µM	–	> 100 µM	–	> 100	–	–	–	> 100	–	> 100	–	–	–	> 100 µM	–	–
O=c1ncccn1C1C=C(CO)C(O)C1O (stereo not drawn)	–	> 50 µM	–	> 50 µM	–	–	–	–	–	> 50	–	> 50	–	> 50	–	> 50 µM	–	> 50 µM	–	–
CC1(C)OC2COC3(CNO)OC(C)(C)OC3C2O1 (stereo not drawn)	–	> 100 µM	–	> 100 µM	–	–	–	> 100	–	> 100	–	> 100	–	> 100	–	> 100 µM	–	> 100 µM	–	–
Cc1nnc(N/N=C(/C(=O)C(C#N)c2ccccc2)C(C#N)c2ccccc2)n1N (stereo not drawn)	–	> 65.7 µM	–	> 55.4 µM	–	> 100 µM	–	34.7	–	> 100	–	> 100	–	49.3	–	> 53 µM	–	> 100 µM	–	–
COc1ccccc1-c1cc(=O)c2ccc(C)nc2[nH]1	–	> 100 µM	–	> 100 µM	–	–	–	–	–	> 100	–	> 100	–	> 100	–	> 100 µM	–	> 100 µM	> 100	–
CCOC1Oc2ccccc2-c2oc(=O)c(Sc3ccc(C)cc3)cc21 (stereo not drawn)	32	> 100 µM	34.4	> 100 µM	–	–	32.6	> 100	20.5	> 100	42.8	> 100	19.3	59	27.6	> 100 µM	58.5	> 100 µM	> 100	29.5
CC1(c2ccccc2)CC(c2ccccc2)=NO1 (stereo not drawn)	–	> 100 µM	–	> 100 µM	–	> 100 µM	–	> 100	–	> 100	–	> 100	–	> 100	–	> 100 µM	–	> 100 µM	–	–
CC(C)c1ccccc1NC(=O)/C(Cl)=C1/Sc2ccccc2NC1=O	–	–	–	–	–	–	–	87.9	–	66.6	–	> 100	–	> 100	–	> 100 µM	–	> 100 µM	–	–
O=C/C(=C(/Cl)c1ccc(O)cc1)c1ccccc1	–	> 62.7 µM	–	> 100 µM	–	> 100 µM	–	> 67.2	–	85.8	–	> 75.7	–	> 84.6	–	46 µM	–	–	–	–
O=C1C2=C(c3ccccc31)C(c1ccccc1Cl)N1C(=O)CCSC1=N2 (stereo not drawn)	–	> 100 µM	–	> 100 µM	–	–	–	> 100	–	> 100	–	> 100	–	> 100	–	> 100 µM	–	> 100 µM	–	–
Cl[Si]1(Cl)Oc2ccccc2O[Si](Cl)(Cl)Oc2ccccc2O1	–	70.9 µM	–	> 100 µM	–	–	–	99.1	–	> 100	–	> 100	–	> 100	–	> 100 µM	–	> 100 µM	–	–
COc1cccc(/C=C2\CCC(C)(CN(C)C)C2=O)c1 (stereo not drawn)	–	> 100 µM	–	> 100 µM	–	> 100 µM	–	> 100	–	–	–	> 100	–	> 100	–	> 100 µM	–	> 100 µM	–	–
NC(=O)/C=C/C(=O)O	–	> 5000 µM	–	> 5000 µM	–	> 5000 µM	–	> 5000	–	> 5000	–	–	–	> 5000	–	> 5000 µM	–	> 5000 µM	–	–
CCOC(=O)c1ccc(N[C@@H]2c3cc4c(cc3C(C3=CC(=O)C(=O)C(OC)=C3)[C@H]3C(=O)OCC32)OCO4)cc1 (stereo partly drawn)	–	18.2 µM	–	> 33.2 µM	–	–	–	9.04	–	6.77	–	26.3	–	5.67	–	7.82 µM	–	1.66 µM	–	–
CCN(CC)CC(=O)N1CCc2c([nH]c3ccccc23)C1c1cccnc1 (stereo not drawn)	–	> 100 µM	–	> 100 µM	–	–	–	> 100	–	> 100	–	> 100	–	> 100	–	> 100 µM	–	> 100 µM	–	–
O=c1c2c3c(sc2n2c(-c4cc(-c5ccccc5)nn4-c4ccccc4)nnc2n1Cc1ccccc1)CCCC3	–	–	> 100	> 100 µM	–	–	12.1	56.4	> 100	> 100	> 100	> 100	> 100	> 100	> 100	> 100 µM	> 100	> 100 µM	> 100	> 100
C=CCC1[C@@H](C(C)(C)C(C(C)=O)C(=O)C(=O)OC)OC(C(C)(C)C)N1C(=O)OC (stereo partly drawn)	–	> 100 µM	–	> 100 µM	–	–	–	> 100	–	> 100	–	> 100	–	> 100	–	> 100 µM	–	> 100 µM	–	–
O=C(NC12CC3CC(CC(C3)C1)C2)C(=O)c1c[nH]c2ccc(Cl)cc12	–	> 100 µM	–	> 100 µM	–	> 100 µM	–	52.1	–	> 100	–	> 100	–	> 100	–	> 100 µM	–	66.2 µM	–	–
Cc1ccc2nc3c(Cl)c(C)c(=O)cc-3sc2c1	> 100	> 100 µM	78	> 100 µM	–	–	31.6	> 100	> 100	> 100	63.3	> 100	–	> 100	34.3	> 100 µM	47.8	> 100 µM	–	–
